From PubChem BioAssay AID2060333 (Molecular Pharmacology Branch, DTP, NCI, 2025)

Tested on: 845751-090-R-J2-PDC tumor spheroid viability
Assay: Anticancer human tumor 845751-090-R-J2-PDC patient-derived head and neck squamous carcinoma cell line growth inhibition [IpAb]
Conditions: spheroids with HUVEC and MSC; for IC50: curve of first compound; for viability, T/C: stronger effect = lower value
Summary of the method: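 Multi-cell spheroids of 60% tumour cells, 25% HUVEC and 15% MSC in ultra-low-attachment U-bottom wells, treated with agents combined with ipatasertib or abemaciclib. Half-log ranges top out near clinical Cmax, or 10 microM when Cmax is unknown.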

[1] = second compound 0.1 µM, first compound 0.0316 µM
[2] = second compound 0.1 µM, first compound 0.1 µM
[3] = second compound 0.1 µM, first compound 0.316 µM
[4] = second compound 0.1 µM, first compound 1 µM
[5] = second compound 0.1 µM, first compound 3.16 µM
[6] = second compound 0.1 µM, first compound 10 µM
[7] = second compound 0.316 µM, first compound 0.0316 µM
[8] = second compound 0.316 µM, first compound 0.1 µM
[9] = second compound 0.316 µM, first compound 0.316 µM
[10] = second compound 0.316 µM, first compound 1 µM
[11] = second compound 0.316 µM, first compound 3.16 µM
[12] = second compound 0.316 µM, first compound 10 µM
[13] = second compound 1 µM, first compound 0.0316 µM
[14] = second compound 1 µM, first compound 0.1 µM
[15] = second compound 1 µM, first compound 0.316 µM
[16] = second compound 1 µM, first compound 1 µM
[17] = second compound 1 µM, first compound 3.16 µM
[18] = second compound 1 µM, first compound 10 µM
[19] = second compound 3.16 µM, first compound 0.0316 µM
[20] = second compound 3.16 µM, first compound 0.1 µM
[21] = second compound 3.16 µM, first compound 0.316 µM
[22] = second compound 3.16 µM, first compound 1 µM
[23] = second compound 3.16 µM, first compound 3.16 µM
[24] = second compound 3.16 µM, first compound 10 µM
[25] = second compound 10 µM, first compound 0.0316 µM
[26] = second compound 10 µM, first compound 0.1 µM
[27] = second compound 10 µM, first compound 0.316 µM
[28] = second compound 10 µM, first compound 1 µM
[29] = second compound 10 µM, first compound 3.16 µM
[30] = second compound 10 µM, first compound 10 µM
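Also: spheroids exposed to compounds for 7 days before readout.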
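For viability, T/C in this document: CTG3D luminescence normalised so that 100% = DMSO vehicle control.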

| SMILES | IC50 (second compound 0.1 µM) | IC50 (second compound 0.316 µM) | IC50 (second compound 1 µM) | IC50 (second compound 3.16 µM) | IC50 (second compound 10 µM) | viability, T/C [1] | viability, T/C [2] | viability, T/C [3] | viability, T/C [4] | viability, T/C [7] | viability, T/C [8] | viability, T/C [9] | viability, T/C [10] | viability, T/C [13] | viability, T/C [14] | viability, T/C [15] | viability, T/C [16] | viability, T/C [19] | viability, T/C [20] | viability, T/C [21] | also measured |
| --- | --- | --- | --- | --- | --- | --- | --- | --- | --- | --- | --- | --- | --- | --- | --- | --- | --- | --- | --- | --- | --- |
| CC1(C)CCC(CN2CCN(c3ccc(C(=O)NS(=O)(=O)c4ccc(NCC5CCOCC5)c([N+](=O)[O-])c4)c(Oc4cnc5[nH]ccc5c4)c3)CC2)=C(c2ccc(Cl)cc2)C1 + CC(C)NCC(C(=O)N1CCN(c2ncnc3c2C(C)CC3O)CC1)c1ccc(Cl)cc1 | 5770 nM | < 31.6 nM | < 31.6 nM | < 31.6 nM | < 31.6 nM | 65.2% | 83% | 81.9% | 67% | 30.5% | 38.3% | 53.5% | 44% | 28.6% | 27.6% | 54.8% | 33.1% | 26.7% | 27.3% | 31.5% | viability, T/C [5]: 111%; viability, T/C [6]: 20.9%; viability, T/C [11]: 47%; viability, T/C [12]: 14.4%; viability, T/C [17]: 33.6%; viability, T/C [18]: 7.48%; viability, T/C [22]: 29.5%; viability, T/C [23]: 42.4%; viability, T/C [24]: 5.79%; viability, T/C [25]: 13.1%; viability, T/C [26]: 14.6%; viability, T/C [27]: 38.2%; viability, T/C [28]: 15.5%; viability, T/C [29]: 22%; viability, T/C [30]: 3.52% |
| CCCS(=O)(=O)Nc1ccc(F)c(C(=O)c2c[nH]c3ncc(-c4ccc(Cl)cc4)cc23)c1F + CC(C)NCC(C(=O)N1CCN(c2ncnc3c2C(C)CC3O)CC1)c1ccc(Cl)cc1 | > 10000 nM | 126 nM | < 31.6 nM | < 31.6 nM | < 31.6 nM | 74.3% | 75.2% | 63% | 61.6% | 47.2% | 52.1% | 46.1% | 55.4% | 46.5% | 45.9% | 37.6% | 31.2% | 41.9% | 42.6% | 29% | viability, T/C [5]: 49%; viability, T/C [6]: 53.4%; viability, T/C [11]: 56.7%; viability, T/C [12]: 38.8%; viability, T/C [17]: 42.5%; viability, T/C [18]: 24.8%; viability, T/C [22]: 26.5%; viability, T/C [23]: 32%; viability, T/C [24]: 16.3%; viability, T/C [25]: 18.7%; viability, T/C [26]: 17.2%; viability, T/C [27]: 19.6%; viability, T/C [28]: 14.7%; viability, T/C [29]: 15.7%; viability, T/C [30]: 7.71% |
| COc1c(OCCCN2CCOCC2)ccc2c3n(c(=NC(=O)c4cnc(N)nc4)nc12)CCN3 + CC(C)NCC(C(=O)N1CCN(c2ncnc3c2C(C)CC3O)CC1)c1ccc(Cl)cc1 | 7.18 nM | < 3.16 nM | < 3.16 nM | < 3.16 nM | < 3.16 nM | 32.1% | 19.5% | 16.5% | 3.52% | 38.4% | 17% | 9.83% | 5.73% | 17.1% | 9.67% | 5.4% | 2.49% | 17.7% | 7.76% | 3.93% | viability, T/C (second compound 0.1 µM, first compound 0.00316 µM): 60.9%; viability, T/C (second compound 0.1 µM, first compound 0.01 µM): 46.1%; viability, T/C (second compound 0.316 µM, first compound 0.00316 µM): 26.4%; viability, T/C (second compound 0.316 µM, first compound 0.01 µM): 27.3%; viability, T/C (second compound 1 µM, first compound 0.00316 µM): 34.6%; viability, T/C (second compound 1 µM, first compound 0.01 µM): 21.8%; viability, T/C (second compound 3.16 µM, first compound 0.00316 µM): 22.5%; viability, T/C (second compound 3.16 µM, first compound 0.01 µM): 21.9%; viability, T/C [22]: 2.76%; viability, T/C (second compound 10 µM, first compound 0.00316 µM): 17.4%; viability, T/C (second compound 10 µM, first compound 0.01 µM): 17.7%; viability, T/C [25]: 13.4%; viability, T/C [26]: 5.23%; viability, T/C [27]: 2.57%; viability, T/C [28]: 1.62% |
| Cc1nc(NC(=O)N2CCCC2C(N)=O)sc1-c1ccnc(C(C)(C)C(F)(F)F)c1 (stereo not given) + CC(C)NCC(C(=O)N1CCN(c2ncnc3c2C(C)CC3O)CC1)c1ccc(Cl)cc1 | 108 nM | < 31.6 nM | < 31.6 nM | < 31.6 nM | < 31.6 nM | 49.2% | 54% | 27.6% | 19.2% | 24.5% | 30.9% | 20.9% | 15.6% | 17.4% | 21.7% | 18% | 13.8% | 16% | 15.8% | 14.1% | viability, T/C [5]: 15.5%; viability, T/C [6]: 8.29%; viability, T/C [11]: 13.1%; viability, T/C [12]: 7.03%; viability, T/C [17]: 10.6%; viability, T/C [18]: 7.97%; viability, T/C [22]: 12.7%; viability, T/C [23]: 9.92%; viability, T/C [24]: 7.77%; viability, T/C [25]: 13.9%; viability, T/C [26]: 13.1%; viability, T/C [27]: 17.2%; viability, T/C [28]: 12%; viability, T/C [29]: 9.58%; viability, T/C [30]: 5.74% |
